Data on 67 compounds can be found in patent US8551984B2, “Aminopyrimidines as SYK inhibitors” (Merck Sharp & Dohme Corp., priority 2009, dated 2013).

For orientation: IC50 means the concentration that gives 50% inhibition.

Structures are written as SMILES.

The test addresses recombinant human SYK (GST-hSYK fusion protein) (Homo sapiens, UniProt P43405). The experiment in a line: biochemical. The conditions noted are these: rhSYK Activity (IC50), recombinant human GST-SYK 5 pM, ATP 25 μM, biotinylated substrate peptide 250 nM, HTRF, 10-dose titration. On the technique in general: In TR-FRET formats the signal depends on donor and acceptor labels being close together.
Source text: Homogeneous Time-Resolved Fluorescence (HTRF) Assay for the Recombinant Human SYK Enzyme:
Consider `Cc1cc(Nc2nccc(C(F)(F)F)n2)cc(-c2cnc(C(=O)N3C[C@@H](O)[C@@H](O)C3)s2)c1` [Example 87B-18], for which the half-maximal inhibitory concentration (IC50) is less than 100 nM. Turning to `Cc1cc(Nc2nccc(C(F)(F)F)n2)cc(-c2cnc(C(=O)N3CCC(C(=O)O)CC3)s2)c1` [Example 87B-19], the IC50 is less than 100 nM. To `Cc1cc(Nc2nccc(C(F)(F)F)n2)cc(-c2cnc(C(=O)N3CC(O)CC3C(=O)O)s2)c1` (stereo not shown) [Example 87B-20] belongs less than 100 nM; to `COC(=O)C1CC(O)CN1C(=O)c1ncc(-c2cc(C)cc(Nc3nccc(C(F)(F)F)n3)c2)s1` (stereo not shown) [Example 87B-21], less than 100 nM.

In the case of `Cc1cc(Nc2nccc(C(F)(F)F)n2)cc(-c2cnc(C(=O)N3CCC(O)(C(=O)O)CC3)s2)c1` [Example 87B-22], the IC50 was less than 100 nM. Under `Cc1cc(Nc2nccc(C(F)(F)F)n2)cc(-c2cnc(CNCC3CCC(=O)N3)s2)c1` (stereo not shown) [Example 88, 5-[({[5-(3-methyl-5-{[4-(trifluoromethyl)pyrimidin-2-yl]amino}phenyl)-1,3-thiazol-2-yl]-methyl}amino)methyl]pyrrolidin-2-one] stands less than 100 nM. Under `Cc1cc(Nc2nccc(C(F)(F)F)n2)cc(-c2cnc(CNc3cncnc3)s2)c1` [Example 88A-1] stands less than 100 nM.

`Cc1cc(Nc2nccc(C(F)(F)F)n2)cc(-c2cnc(CNCC(O)C(F)F)s2)c1` (stereo not shown) [Example 88A-2]: the IC50 is less than 100 nM. To `Cc1cc(Nc2nccc(C(F)(F)F)n2)cc(-c2cnc(CNCc3n[nH]c(=O)[nH]3)s2)c1` [Example 88A-3] belongs less than 100 nM; to `Cc1cc(Nc2nccc(C(F)(F)F)n2)cc(-c2cnc(CNC3CCS(=O)(=O)C3)s2)c1` (stereo not shown) [Example 88A-5], less than 100 nM; to `Cc1cc(Nc2nccc(C(F)(F)F)n2)cc(-c2cnc(CN(C)C(C3CC3)C3CC3)s2)c1` [Example 88A-7], less than 100 nM. Under `C=C(F)CNCc1ncc(-c2cc(C)cc(Nc3nccc(C(F)(F)F)n3)c2)s1` [Example 88A-8] stands less than 100 nM.

For `Cc1cc(Nc2nccc(C(F)(F)F)n2)cc(-c2cnc(CNC(C)c3ccccn3)s2)c1` (stereo not shown) [Example 88A-9], the IC50 was less than 100 nM. Turning to `Cc1cc(Nc2nccc(C(F)(F)F)n2)cc(-c2cnc(CNc3cn(C(C)C)nn3)s2)c1` [Example 88A-10], the IC50 is less than 100 nM. Under `Cc1cc(Nc2nccc(C(F)(F)F)n2)cc(-c2cnc(CN(C)CCO)s2)c1` [Example 88A-12] stands less than 100 nM; under `Cc1cc(Nc2nccc(C(F)(F)F)n2)cc(-c2cnc(CN(CCO)CCO)s2)c1` [Example 88A-13], less than 100 nM; under `Cc1cc(Nc2nccc(C(F)(F)F)n2)cc(-c2cnc(CNC(C)(CO)CO)s2)c1` [Example 88A-14], less than 100 nM. Turning to `Cc1cc(Nc2nccc(C(F)(F)F)n2)cc(-c2cnc(CNC(C)CO)s2)c1` (stereo not shown) [Example 88A-15], the 50% inhibitory concentration (IC50) is less than 100 nM. To `CCC(CO)NCc1ncc(-c2cc(C)cc(Nc3nccc(C(F)(F)F)n3)c2)s1` (stereo not shown) [Example 88A-16] belongs less than 100 nM; to `Cc1cc(Nc2nccc(C(F)(F)F)n2)cc(-c2cnc(CNCC(C)O)s2)c1` (stereo not shown) [Example 88A-17], less than 100 nM. Under `Cc1cc(Nc2nccc(C(F)(F)F)n2)cc(-c2cnc(CNCCO)s2)c1` [Example 88A-18] stands less than 100 nM; under `Cc1cc(Nc2nccc(C(F)(F)F)n2)cc(-c2cnc(CNCCCO)s2)c1` [Example 88A-19], less than 100 nM. For `Cc1cc(Nc2nccc(C(F)(F)F)n2)cc(-c2cnc(CNCCCCO)s2)c1` [Example 88A-20], the IC50 is less than 100 nM. For `Cc1cc(Nc2nccc(C(F)(F)F)n2)cc(-c2cnc(CNC3(C(=O)O)CC3)s2)c1` [Example 88A-21], the 50% inhibitory concentration (IC50) is less than 100 nM. Under `Cc1cc(Nc2nccc(C(F)(F)F)n2)cc(-c2cnc(CNCC(N)=O)s2)c1` [Example 88A-22] stands less than 100 nM; under `Cc1cc(Nc2nccc(C(F)(F)F)n2)cc(-c2cnc(CNCCC(N)=O)s2)c1` [Example 88A-23], less than 100 nM. Under `Cc1cc(Nc2nccc(C(F)(F)F)n2)cc(-c2cnc(CNCCS(C)(=O)=O)s2)c1` [Example 88A-24] stands less than 100 nM; under `Cc1cc(Nc2nccc(C(F)(F)F)n2)cc(-c2cnc(CN(C)CCS(C)(=O)=O)s2)c1` [Example 88A-25], less than 100 nM.

With `CCn1cc(NCc2ncc(-c3cc(C)cc(Nc4nccc(C(F)(F)F)n4)c3)s2)nn1` [Example 88A-26], the half-inhibitory concentration (IC50) is less than 100 nM. `Cc1cc(Nc2nccc(C(F)(F)F)n2)cc(-c2cnc(CN(C)CC(O)CO)s2)c1` (stereo not shown) [Example 88A-28]: the IC50 is less than 100 nM. Consider `Cc1cc(Nc2nccc(C(F)(F)F)n2)cc(-c2cnc(CNC3CCCCNC3=O)s2)c1` (stereo not shown) [Example 88A-29], for which the IC50 is less than 100 nM. Consider `Cc1cc(Nc2nccc(C(F)(F)F)n2)cc(-c2cnc(CNCCN3CCNC(=O)C3)s2)c1` [Example 88A-30], for which the IC50 is less than 100 nM. For `CNS(=O)(=O)CCNCc1ncc(-c2cc(C)cc(Nc3nccc(C(F)(F)F)n3)c2)s1` [Example 88A-31], the IC50 was less than 100 nM. With `Cc1cc(Nc2nccc(C(F)(F)F)n2)cc(-c2cnc(CNc3cc(C(=O)O)n[nH]3)s2)c1` [Example 88A-32], the IC50 is less than 100 nM.

With `Cc1cc(Nc2nccc(C(F)(F)F)n2)cc(-c2cnc(CNCC(C)(C)O)s2)c1` [Example 88A-33], the IC50 is less than 100 nM. Turning to `Cc1cc(Nc2nccc(C(F)(F)F)n2)cc(-c2cnc(CNC3CCNC3=O)s2)c1` (stereo not shown) [Example 88A-35], the concentration for half-maximal inhibition (IC50) was less than 100 nM.

In the case of `Cc1cc(Nc2nccc(C(F)(F)F)n2)cc(-c2cnc(CNC3CNC(=O)C3)s2)c1` (stereo not shown) [Example 88A-36], the IC50 was less than 100 nM. Under `Cc1cc(Nc2nccc(C(F)(F)F)n2)cc(-c2cnc(C(C)N(C)C)s2)c1` (stereo not shown) [Example 88A-38] stands less than 100 nM.

Consider `Cc1cc(Nc2nccc(C(F)(F)F)n2)cc(-c2cnc(C(C)NC3CNC(=O)C3)s2)c1` (stereo not shown) [Example 88A-39], for which the IC50 was less than 100 nM. To `Cc1cc(Nc2nccc(C(F)(F)F)n2)cc(-c2cnc(CN)s2)c1` [Example 88A-40] belongs less than 100 nM; to `Cc1cc(Nc2nccc(C(F)(F)F)n2)cc(-c2cnc(CNCC(O)CO)s2)c1` (stereo not shown) [Example 88A-41], less than 100 nM. To `Cc1cc(Nc2nccc(C(F)(F)F)n2)cc(-c2cnc(CNCCOCCO)s2)c1` [Example 88A-42] belongs less than 100 nM; to `Cc1cc(Nc2nccc(C(F)(F)F)n2)cc(-c2cnc(CNC(C)(C)CC(C)O)s2)c1` (stereo not shown) [Example 88A-45], less than 100 nM. With `Cc1cc(Nc2nccc(C(F)(F)F)n2)cc(-c2cnc(CNCC3(CO)COC3)s2)c1` [Example 88A-46], the IC50 was less than 100 nM. As for `Cc1cc(Nc2nccc(C(F)(F)F)n2)cc(-c2cnc(CNC(CO)(CO)CO)s2)c1` [Example 88A-47], the IC50 was less than 100 nM. With `Cc1cc(Nc2nccc(C(F)(F)F)n2)cc(-c2cnc(CNCC3(CO)CCOCC3)s2)c1` [Example 88A-49], the IC50 was less than 100 nM. Turning to `Cc1cc(Nc2nccc(C(F)(F)F)n2)cc(-c2cnc(CNCCCN(CCO)CCO)s2)c1` [Example 88A-51], the half-maximal inhibitory concentration (IC50) is less than 100 nM.

As to `Cc1cc(Nc2nccc(C(F)(F)F)n2)cc(-c2cnc(CN(CCO)CCS(=O)(=O)O)s2)c1` [Example 88A-52], the IC50 was less than 100 nM. To `Cc1cc(Nc2nccc(C(F)(F)F)n2)cc(-c2cnc(CN(C)C3COCC3O)s2)c1` (stereo not shown) [Example 88A-54] belongs less than 100 nM; to `Cc1cc(Nc2nccc(C(F)(F)F)n2)cc(-c2cnc(CNC3(C)CCCCC3CO)s2)c1` (stereo not shown) [Example 88A-55], less than 100 nM; to `Cc1cc(Nc2nccc(C(F)(F)F)n2)cc(-c2cnc(CNC3CS(=O)(=O)CC3O)s2)c1` (stereo not shown) [Example 88A-57], less than 100 nM. For `CCN(Cc1ncc(-c2cc(C)cc(Nc3nccc(C(F)(F)F)n3)c2)s1)C1CS(=O)(=O)CC1O` (stereo not shown) [Example 88A-58], the IC50 is less than 100 nM. Take `CNC(=O)NCc1ncc(-c2cc(C)cc(Nc3nccc(C(F)(F)F)n3)c2)s1` [Example 88A-61]: the IC50 is less than 100 nM.

In the case of `CCNC(=O)NCc1ncc(-c2cc(C)cc(Nc3nccc(C(F)(F)F)n3)c2)s1` [Example 88A-62], the IC50 was less than 100 nM. Under `Cc1cc(Nc2nccc(C(F)(F)F)n2)cc(-c2cnc(CNC(=O)NC(C)C)s2)c1` [Example 88A-63] stands less than 100 nM; under `CCOC(=O)C(C)NC(=O)NCc1ncc(-c2cc(C)cc(Nc3nccc(C(F)(F)F)n3)c2)s1` (stereo not shown) [Example 88A-64], less than 100 nM. With `Cc1cc(Nc2nccc(C(F)(F)F)n2)cc(-c2cnc(CN3CCCC(C)(O)C3)s2)c1` (stereo not shown) [Example 88B-1], the IC50 was less than 100 nM. For the compound `Cc1cc(Nc2nccc(C(F)(F)F)n2)cc(-c2cnc(CN3CCC(C)(O)C3)s2)c1` (stereo not shown) [Example 88B-2], the IC50 was less than 100 nM. Take `Cc1cc(Nc2nccc(C(F)(F)F)n2)cc(-c2cnc(CN3CC[S+]([O-])CC3)s2)c1` [Example 88B-3]: the IC50 is less than 100 nM. To `Cc1cc(Nc2nccc(C(F)(F)F)n2)cc(-c2cnc(CN3CCC[S+]([O-])CC3)s2)c1` (stereo not shown) [Example 88B-4] belongs less than 100 nM. Under `Cc1cc(Nc2nccc(C(F)(F)F)n2)cc(-c2cnc(CN3CCC(C)(O)CC3)s2)c1` [Example 88B-5] stands less than 100 nM; under `CC(=O)N1CCN(Cc2ncc(-c3cc(C)cc(Nc4nccc(C(F)(F)F)n4)c3)s2)CC1` [Example 88B-6], less than 100 nM. Consider `Cc1cc(Nc2nccc(C(F)(F)F)n2)cc(-c2cnc(CN3CCNC(=O)CC3)s2)c1` [Example 88B-7], for which the half-maximal inhibitory concentration (IC50) was less than 100 nM.

With `Cc1cc(Nc2nccc(C(F)(F)F)n2)cc(-c2cnc(CN3CCCNC(=O)C3)s2)c1` [Example 88B-8], the IC50 was less than 100 nM. Under `Cc1cc(Nc2nccc(C(F)(F)F)n2)cc(-c2cnc(CN3CCN(S(C)(=O)=O)CC3)s2)c1` [Example 88B-9] stands less than 100 nM; under `Cc1cc(Nc2nccc(C(F)(F)F)n2)cc(-c2cnc(CN3CCCC(C(N)=O)C3)s2)c1` (stereo not shown) [Example 88B-10], less than 100 nM; under `Cc1cc(Nc2nccc(C(F)(F)F)n2)cc(-c2cnc(CN3CCOC(CCO)C3)s2)c1` (stereo not shown) [Example 88B-11], less than 100 nM.
